Reference: paper PMC4340712, “Delineating the Biosynthesis of Gentamicin X2, the Common Precursor of the Gentamicin C Antibiotic Complex” (Chemistry & Biology, 2015)

How the values were obtained:
[1] = biological target: T1, GenS2 (Micromonospora echinospora, UniProt Q70KD4); experiment: LC-ESI-HRMS of […]″-deamination; format: biochemical; details: 2-oxoglutarate 1 mM as amino acceptor, Tris-HCl pH 7.5, 30°C; reverse reaction; GenS2 alone
T1 construct: gene gtmD; full length, N-terminal His6 tag (pET28a), initiator Met lost, tag kept; E. coli BL21(DE3)

[2] = biological target: T2, GenD2 (Micromonospora echinospora, UniProt Q70KD1); experiment: coupled reverse reaction from kanamycin B, LC-ESI-HRMS; format: biochemical; details: NADH or NADPH 2.5 mM; ketone generated in situ by GenS2 with 2-oxoglutarate; Tris-HCl pH 7.5, 30°C
T2 construct: gene gtmC; full length, N-terminal His6 tag (pET28a), initiator Met lost, tag kept; E. coli BL21(DE3); 38,533 Da (calc. 38,539)

[3] = substrate: NC[C@H]1O[C@H](O[C@H]2[C@H](O)[C@@H](O[C@H]3O[C@H](CO)[C@@H](O)[C@H](N)[C@H]3O)[C@H](N)C[C@@H]2N)[C@H](N)[C@@H](O)[C@@H]1O; experiment: SAM-dependent N-methylation kinetics (details in supplement); format: biochemical, Micromonospora echinospora; details: co-substrate SAM; 3″-N-methylation

T1 sequence (Q70KD4 2-418): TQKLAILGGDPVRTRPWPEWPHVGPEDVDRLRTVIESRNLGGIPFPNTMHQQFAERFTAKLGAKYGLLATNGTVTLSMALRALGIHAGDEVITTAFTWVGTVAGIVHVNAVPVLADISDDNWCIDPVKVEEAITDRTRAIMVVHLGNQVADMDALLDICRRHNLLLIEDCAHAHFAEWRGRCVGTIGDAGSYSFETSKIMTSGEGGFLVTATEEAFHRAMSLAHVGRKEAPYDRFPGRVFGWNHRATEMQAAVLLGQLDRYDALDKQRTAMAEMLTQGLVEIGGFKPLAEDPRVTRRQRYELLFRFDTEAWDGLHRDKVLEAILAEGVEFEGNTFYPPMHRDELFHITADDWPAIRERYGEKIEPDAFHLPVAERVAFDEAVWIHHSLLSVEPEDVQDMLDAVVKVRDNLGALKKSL
T2 sequence (Q70KD1 entry or part of it): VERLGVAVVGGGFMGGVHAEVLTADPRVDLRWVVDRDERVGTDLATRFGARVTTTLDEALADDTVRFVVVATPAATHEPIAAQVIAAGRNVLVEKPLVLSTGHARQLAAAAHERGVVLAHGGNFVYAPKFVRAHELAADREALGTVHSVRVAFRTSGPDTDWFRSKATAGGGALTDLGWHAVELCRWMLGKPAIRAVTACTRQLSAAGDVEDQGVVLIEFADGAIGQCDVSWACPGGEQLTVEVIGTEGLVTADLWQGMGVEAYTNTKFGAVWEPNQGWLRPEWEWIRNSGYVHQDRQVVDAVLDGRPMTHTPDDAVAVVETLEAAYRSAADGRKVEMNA

In the case of `NC[C@H]1O[C@H](O[C@H]2[C@H](O)[C@@H](O[C@H]3O[C@H](CO)[C@@H](O)[C@H](N)[C@H]3O)[C@H](N)C[C@@H]2N)[C@H](N)[C@@H](O)[C@@H]1O` [compound 11, kanamycin B], the “LC-ESI-HRMS of 3′′-deamination” value [1] is reported as “LC-ESI-HRMS analysis showed that GenS2 catalyzed low-level deamination of both compounds”.

With `NC[C@H]1O[C@H](O[C@H]2[C@H](O)[C@@H](O[C@H]3O[C@H](CO)[C@@H](O)[C@H](N)[C@H]3O)[C@H](N)C[C@@H]2N)[C@H](N)C[C@@H]1O` [compound 12, tobramycin] the “LC-ESI-HRMS of 3′′-deamination” value [1] was “LC-ESI-HRMS analysis showed that GenS2 catalyzed low-level deamination of both compounds”.

With `NC[C@H]1O[C@H](O[C@H]2[C@H](O)[C@@H](O[C@H]3O[C@H](CO)[C@@H](O)C(=O)[C@H]3O)[C@H](N)C[C@@H]2N)[C@H](N)[C@@H](O)[C@@H]1O` [compound 13, 3″-deamino-3″-oxo-kanamycin B] the “coupled reverse reaction from kanamycin B, LC-ESI-HRMS” value [2] was “in the presence of GenS2 and GenD2 (and either NADH or NADPH) essentially quantitative yields”.

B1: GenN (Micromonospora echinospora) (protein)
chain: IVGGSTIQPERVDAAALRQLGDAMRKVVGSADPTPLADLLSGTPVDPDELTREVGADGRQALLDSGMAVDDGTTFSSPLRGHQLHGVVVLSDPDVEEEVQHRWYVDPLWEADLLIRLMLRRGGARALDMGCGSGVLSLVLADRYESVLGVDVNPRAVALSRLNAALNGLTNVTFREGDMFEPAEGRFSRIVFNSPTNEEGNEFVDLLEAGEPILETFFRNVPRKLESGGIVEVNLAMNDYPGDPFRERLADWLGLTENGLRVQIFTSQRRATESGGEWKRGWLVVAPGPVGLTEVEWPYHDRYEEDPDALLDGTDRLLRG
notes: full length, N-terminal His6 tag (pET28a), initiator Met lost, tag kept; E. coli BL21(DE3)
Work on B1 yielded a Km [3] of 34 ± 3.8 µM and a kcat [3] of 1.93 ± 0.1 s⁻¹.
